Laboratory results published in the Kinase Knowledgebase extract (Sharma et al. 2016).

molecular target: CDK2 (human) (UniProt P24941); assay: Enzyme Assay

Ki [µM]	Structure (SMILES)
< 1	CCc1cc(Nc2nc(Nc3ccc4c(=O)[nH][nH]c4c3)nc3ccc(-c4ccccc4)cc23)n[nH]1
< 1	COCc1cc(Nc2nc(Nc3ccc4c(=O)[nH][nH]c4c3)nc3ccccc23)n[nH]1
< 1	O=c1[nH][nH]c2cc(C(F)(F)F)c(-c3nc(Nc4n[nH]c5c(F)cc(F)cc45)c4nccnc4n3)cc12
< 1	O=C(CC(=O)Nc1nccnn1)Nc1ccc2c(=O)[nH][nH]c2c1
< 1	O=C(CCNc1cc(C2CC2)[nH]n1)Cc1ccc2c(=O)[nH][nH]c2c1
< 1	O=c1[nH][nH]c2cc(SC3CCCC(Nc4cc(C5CC5)[nH]n4)C3)ccc12 (configuration not stated)
< 1	NC1CCCCC1c1cc(Nc2n[nH]c3ccccc23)nc(-c2ccc3[nH][nH]c(=O)c3c2C(F)(F)F)n1 (configuration not stated)
< 1	Cn1cnc(NC2CCCC(Nc3ccc4c(=O)[nH][nH]c4c3)C2)c1 (configuration not stated)
< 1	COC(C)(C)c1cc(Nc2cc(C3CC3)[nH]n2)nc(Sc2ccc3c(=O)[nH][nH]c3c2)n1
< 1	O=c1[nH][nH]c2cc(Oc3cc(Nc4cc(C5CC5)[nH]n4)ccn3)ccc12
< 1	O=C(CCNc1ccccn1)Cc1ccc2c(=O)[nH][nH]c2c1
< 1	O=c1[nH][nH]c2cc(Nc3nc(Cl)nc(Nc4cc(C5CC5)[nH]n4)n3)ccc12
< 1	O=c1[nH][nH]c2cc(NOCCNc3cc(C4CC4)[nH]n3)ccc12
< 1	Cc1cc(Nc2cc(C)[nH]n2)nc(C2(c3ccc4c(=O)[nH][nH]c4c3)CC2)n1
< 1	COc1ccc(-c2cc(Nc3cc(C)[nH]n3)nc(Oc3ccc4c(=O)[nH][nH]c4c3)n2)cc1
< 1	O=c1[nH][nH]c2ccc(-c3nc(Nc4cc(C5CC5)[nH]n4)c4ccccc4n3)c(C(F)(F)F)c12
< 1	Cc1cnc(NCCC(Cc2ccccc2)Cc2ccc3c(=O)[nH][nH]c3c2)s1 (configuration not stated)
< 1	Cc1cnc(NC(=O)CC(=O)Nc2ccc3c(=O)[nH][nH]c3c2)s1
< 1	Cc1c(Nc2n[nH]c3ccccc23)nc(-c2cc3c(=O)[nH][nH]c3cc2Cl)nc1N1CCOCC1
< 1	Cc1cc(Nc2cc(N3CCCCC3)nc(SCc3ccc4[nH][nH]c(=O)c4c3)n2)n[nH]1
< 1	Cn1cnc(NCCONc2ccc3c(=O)[nH][nH]c3c2)c1
< 1	O=c1[nH][nH]c2cc(C3(C4CCCC(Nc5ccccn5)C4)CC3)ccc12 (configuration not stated)
< 1	O=c1[nH][nH]c2cc(Cl)c(-c3cc4c(c(Nc5n[nH]c6ccccc56)n3)CCCC4)cc12
< 1	Cc1cnc(NC2CCCC2CNc2ccc3c(=O)[nH][nH]c3c2)s1 (configuration not stated)

Ki [µM]	Structure (SMILES)
< 1	Cn1cnc(NC2CCC(Sc3ccc4c(=O)[nH][nH]c4c3)C2)c1 (configuration not stated)
< 1	CCc1cc(Nc2cc(C)[nH]n2)nc(Nc2ccc3c(=O)[nH][nH]c3c2)n1
< 1	O=c1[nH][nH]c2ccc(-c3nc(Nc4n[nH]c5c(F)cc(F)cc45)c4cc(N5CCOCC5)ccc4n3)c(C(F)(F)F)c12
< 1	O=C(CCOc1ccc2c(=O)[nH][nH]c2c1)Nc1nccnn1
< 1	O=c1[nH][nH]c2cc(SC(CCNc3cc(C4CC4)[nH]n3)Cc3ccccc3)ccc12 (configuration not stated)
< 1	Cn1cnc(NC2COCC(Sc3ccc4c(=O)[nH][nH]c4c3)C2)c1 (configuration not stated)
< 1	Cc1cc(Nc2nc(CSc3ccc4[nH][nH]c(=O)c4c3)nc3ccccc23)n[nH]1
< 1	O=c1[nH][nH]c2ccc(-c3nc4c(c(Nc5n[nH]c6ccc(F)cc56)n3)CN(Cc3ccccc3)CC4)c(C(F)(F)F)c12
< 1	O=c1[nH][nH]c2cc(SC3COCC(Nc4cc(C5CC5)[nH]n4)C3)ccc12 (configuration not stated)
< 1	CCCCc1cc(Nc2nncc(-c3ccc4[nH][nH]c(=O)c4c3)n2)n[nH]1
< 1	Cc1cc(Nc2ccnc(Sc3ccc4c(=O)[nH][nH]c4c3)c2)n[nH]1
< 1	Cc1cnc(NC(CCNc2ccc3c(=O)[nH][nH]c3c2)c2ccccc2)s1 (configuration not stated)
< 1	Cc1cnc(NC(CCCc2ccc3c(=O)[nH][nH]c3c2)c2ccccc2)s1 (configuration not stated)
< 1	COC(=O)c1cc(Nc2cc(C)[nH]n2)nc(Sc2ccc3c(=O)[nH][nH]c3c2)n1
< 1	Cc1cnc(Oc2ccc3c(=O)[nH][nH]c3c2)nc1Nc1cc(C2CC2)[nH]n1
< 1	CC1CCN(c2nc(Nc3n[nH]c4ccccc34)nc(-c3cc4c(=O)[nH][nH]c4cc3C(F)(F)F)n2)C1 (configuration not stated)
< 1	O=c1[nH][nH]c2cc(SC3CCCC(Nc4ccccn4)C3)ccc12 (configuration not stated)
< 1	Cc1cc(Nc2cc(C3CC3)[nH]n2)nc(Nc2ccc3c(=O)[nH][nH]c3c2)n1
< 1	O=C(CCNc1ccc2c(=O)[nH][nH]c2c1)Nc1ccccn1
< 1	Cc1cc(Nc2nc(Sc3ccc4c(=O)[nH][nH]c4c3)cc3ccccc23)n[nH]1
< 1	O=C(CCSc1ccc2c(=O)[nH][nH]c2c1)Nc1cc(C2CC2)[nH]n1
< 1	O=C(NC1CCCCC1)c1cc(Nc2nc(-c3ccc4[nH][nH]c(=O)c4c3)nc3ccccc23)n[nH]1
< 1	CN1CCC(OCc2cc(Nc3cc(C4CC4)[nH]n3)nc(Sc3ccc4c(=O)[nH][nH]c4c3)n2)CC1
< 1	Cn1cnc(NC2CCCC2CNc2ccc3c(=O)[nH][nH]c3c2)c1 (configuration not stated)

The remaining lines, values behind:

Structure (SMILES)	Ki [µM]
Cc1nc(-c2ccc3[nH][nH]c(=O)c3c2Cl)nc(Nc2n[nH]c(C3CCCC3)n2)c1C	< 1
O=C(CCNc1ccccn1)Nc1ccc2c(=O)[nH][nH]c2c1	< 1
O=c1[nH][nH]c2cc(Nc3nc(Nc4cc(-c5ccccc5)[nH]n4)cc(-c4cccc([N+](=O)[O-])c4)n3)ccc12	< 1
O=c1[nH][nH]c2cc(OC(CCNc3cc(C4CC4)[nH]n3)Cc3ccccc3)ccc12 (configuration not stated)	< 1
Cn1cnc(NC(CCCc2ccc3c(=O)[nH][nH]c3c2)c2ccccc2)c1 (configuration not stated)	< 1
Cc1cnc(NOCCSc2ccc3c(=O)[nH][nH]c3c2)s1	< 1
O=c1[nH][nH]c2cc(Nc3cc(Nc4n[nH]c5ccccc45)c4ccccc4n3)ccc12	< 1
Cc1cc(Nc2nc([C@@H]3C[C@H]3c3ccc4c(=O)[nH][nH]c4c3)nc3ccccc23)n[nH]1	< 1
O=c1[nH][nH]c2cc(OCC3CCCC(Nc4nccnn4)C3)ccc12 (configuration not stated)	< 1
Cc1cnc(NC(CCOc2ccc3c(=O)[nH][nH]c3c2)c2ccccc2)s1 (configuration not stated)	< 1
NC(=O)c1cc(-c2ncnc(Nc3n[nH]c4c3CCC(=O)C4)n2)cc2c(=O)[nH][nH]c12	< 1
Cc1cnc(NC2COCC(Nc3ccc4c(=O)[nH][nH]c4c3)C2)s1 (configuration not stated)	< 1
O=c1[nH][nH]c2ccc(-c3nc(Nc4n[nH]c5cc(=O)n(-c6ccc(Oc7ccccc7)cc6)nc45)c4ccccc4n3)cc12	< 1
O=c1[nH][nH]c2cc(Nc3cccc(Nc4nccnn4)c3)ccc12	< 1
O=c1[nH][nH]c2cc(NC3COCC(Nc4ccccn4)C3)ccc12 (configuration not stated)	< 1
CN(C)CCCOc1cc(Nc2cc(C3CC3)[nH]n2)nc(Sc2ccc3c(=O)[nH][nH]c3c2)n1	< 1
Cc1nc(Nc2nc(-c3ccc4[nH][nH]c(=O)c4c3C(N)=O)nc3ccccc23)n[nH]1	< 1
CN(C)CCOCc1cc(Nc2n[nH]c3ccccc23)nc(Sc2ccc3c(=O)[nH][nH]c3c2)n1	< 1
Cc1cccc2nc(Nc3ccc4c(=O)[nH][nH]c4c3)nc(Nc3cc(C4CC4)[nH]n3)c12	< 1
O=c1[nH][nH]c2cc(Cl)c(-c3cc(N4CCCCC4)nc(Nc4n[nH]c5ccccc45)n3)cc12	< 1
Cn1cnc(NC(=O)CCNc2ccc3c(=O)[nH][nH]c3c2)c1	< 1
Cn1cnc(NC2CCC(COCc3ccc4c(=O)[nH][nH]c4c3)C2)c1 (configuration not stated)	< 1
Cc1cc(Nc2cc(-c3ccccc3C)nc(Sc3ccc4c(=O)[nH][nH]c4c3)n2)n[nH]1	< 1
COCCNc1cc(Nc2cc(C)[nH]n2)nc(SCc2ccc3c(=O)[nH][nH]c3c2)n1	< 1
O=c1[nH][nH]c2ccc(-c3nc4c(c(Nc5n[nH]c6ccccc56)n3)CCCC4)c(C(F)(F)F)c12	< 1

Structure (SMILES)	Ki [µM]
O=c1[nH][nH]c2cc(OCCC(Nc3nccnn3)c3ccccc3)ccc12 (configuration not stated)	< 1
COCC(C)(C)c1cc(Nc2cc(C)[nH]n2)nc(Sc2ccc3c(=O)[nH][nH]c3c2)n1	< 1
CCCCc1cc(Nc2nc(-c3ccc4[nH][nH]c(=O)c4c3)nc(C3CC3)n2)n[nH]1	< 1
Cc1cc(Nc2nc(-c3ccc4[nH][nH]c(=O)c4c3Cl)nc(C)c2C)n[nH]1	< 1
O=c1[nH][nH]c2cc(Sc3cccc(Nc4cc(C5CC5)[nH]n4)n3)ccc12	< 1
Cc1cc(Nc2cc(N3CCCC3)nc(SCc3ccc4c(=O)[nH][nH]c4c3)n2)n[nH]1	< 1
O=c1[nH][nH]c2cc(Nc3nc(Nc4n[nH]c5ccccc45)c4ccccc4n3)ccc12	< 1
O=C(CCOc1ccc2c(=O)[nH][nH]c2c1)Nc1cc(C2CC2)[nH]n1	< 1
O=C1CCc2c(nc(-c3ccc4[nH][nH]c(=O)c4c3)nc2Nc2n[nH]c3ccccc23)C1	< 1
Cn1cnc(Nc2cccc(Nc3ccc4c(=O)[nH][nH]c4c3)c2)c1	< 1
Cc1cnc(NOCCNc2ccc3c(=O)[nH][nH]c3c2)s1	< 1
Cc1cc(Nc2cc(C(C)(C)C)nc(Sc3ccc4c(=O)[nH][nH]c4c3)n2)n[nH]1	< 1
O=c1[nH][nH]c2cc(Nc3nc(Nc4cc(C5CC5)[nH]n4)c4cc(N5CCCCC5)ccc4n3)ccc12	< 1
O=C(CCNc1ccccn1)Oc1ccc2c(=O)[nH][nH]c2c1	< 1
Cc1cnc(NCCCNc2ccc3c(=O)[nH][nH]c3c2)s1	< 1
O=c1[nH][nH]c2cc(C(F)(F)F)c(-c3cc(N4CCCCC4)cc(Nc4n[nH]c5ccccc45)n3)cc12	< 1
O=c1[nH][nH]c2cc(Cl)c(-c3nc(Nc4n[nH]c5ccccc45)nc(-c4cccnc4)n3)cc12	< 1
Cc1cc(Nc2cc(-c3ccco3)[nH]n2)nc(-c2ccc3[nH][nH]c(=O)c3c2)n1	< 1
O=c1[nH][nH]c2cc(NC3COCC(Nc4nccnn4)C3)ccc12 (configuration not stated)	< 1
Cc1cc(Nc2cc(-c3ccccc3)[nH]n2)nc(Nc2ccc3c(=O)[nH][nH]c3c2)n1	< 1
O=C(NC1CC1)c1cc(Nc2nc(-c3ccc4[nH][nH]c(=O)c4c3)nc3ccccc23)n[nH]1	< 1
O=c1[nH][nH]c2cc(NC3CCCC(Nc4ccccn4)C3)ccc12 (configuration not stated)	< 1
O=c1[nH][nH]c2ccc(-c3cnnc(Nc4cc(C5CC5)[nH]n4)c3)cc12	< 1
O=C(CCNc1cc(C2CC2)[nH]n1)Oc1ccc2c(=O)[nH][nH]c2c1	< 1
